The source of these data is US20050025758A1, “Method and compositions for treatment of insulin-dependant diabetes mellitus” (priority 1996, published 2005).

Series [1] has as its system female NOD mice. Description: Aerosol treatment and diabetes assessment (blood glucose >11 mM). The conditions noted are these: for Diabetes frequency: 32 mice/group, aerosol 10 consecutive days then weekly from 28 days of age, at 105 days of age; for diabetes incidence at 156 days of age (median) / diabetes incidence at 240 days of age (median): aerosol for 3 or 10 consecutive days and then weekly from 28 days of age, five separate experiments; for diabetes incidence at 240 days of age (median): p=0.005; for incidence of diabetes by 240 days of age: single aerosol treatment at 28 days of age, female NOD mice. Format: in vivo, mouse. On the procedure:
Semi-sealed boxes of eight female NOD mice were each aerosolized by connection to a standard, patient electric pump ([…] Aerosol MKV, Anaesthetic Supplies, Sydney, Australia) and Aeroflo nebulizer (Waite & Co., Sydney). Recombinant human insulin (Humulin R, Eli Lilly) or control ovalbumin protein, at 4 mg/ml, was delivered over 10 min. at an air flow rate of 6 litres/min. in a rated droplet size of <5.8 μm, to groups of 24-32 mice. All treatments were given between 0900 and 1100 hours. Protocols and mouse care were approved and supervised by the institutional Animal Ethic Committee. Retro-orbital venous blood was sampled at least every 28 days from 100 days of age and mice considered to be diabetic if their blood glucose, confirmed by a repeat test, was >11 mM. Glucose was measured with BM-Test Glycemic® strips and a Reflolux® II meter (Boehringer-Mannheim), on a drop of blood aspirated via a glass capillary tube from the retro-orbital venous plexus of unanesthetised mice. Aerosol human insulin or ovalbumin were administered in different schedules to female NOD mice from 28 days of age, the earliest time at which insulitis is detectable in the colony of mice, and their incidence of diabetes and severity of insulitis subsequently measured.

Series [2] deals with female NOD mice. Briefly: Histology: insulitis score and salivary gland infiltration. Format: in vivo, mouse. To be noted: for Insulitis score: mean ± SD, scale 0-4, aerosol 10 consecutive days then weekly from 28 days of age, five non-diabetic mice per group at 105 days of age. On the procedure:
Mice were killed by CO2 inhalation and the pancreas and salivary glands immediately removed into Bouin's fixative and embedded in paraffin. The insulitis score, a measure of the severity of islet infiltration was determined blindly by two independent investigators by grading and then averaging a minimum of 15 separate islets in serial 6 μm pancreas sections stained with haematoxylin and eosin. The grading scale was: 0, no filtration, islet intact; 1, <10 peri-islet lymphoid cells, islet intact; 2, 10-20 peri-and intra-islet lymphoid cells, islet intact; 3, >20 peri- and intra-islet lymphoid cells, <50% of islet replaced or destroyed; 4, massive lymphoid infiltrate with >50% of islet replaced or destroyed. Infiltration of the salivary glands was graded by the number of lymphoid cells in clusters: 0, no cells; 1, <10 cells; 2, 10-50 cells; 3, >50 cells.
Mice (32/group) were given either aerosol insulin or ovalbumin for 10 consecutive days and then weekly from 28 days of age. At 105 days of age, five non-diabetic mice from each group were killed for pancreas histology. The insulitis score is expressed as mean ±SD. • 1.

For series [3], the system named is splenocytes from aerosol-treated mice. Briefly: Proliferative responses of splenocytes from aerosol-treated mice ([3H]-thymidine uptake). In kind it is cell-based, mouse. How it is done:
(§1) Spleen cells from individual normoglycemic mice were treated with a red cell lysis buffer, resuspended and incubated in quadruplicate at 2×10^5/200 μl of serum-free HL-1 medium (Hycor, Irvine, Calif.) containing […] 2-mercaptoethanol, in round-bottom wells with the indicated concentrations of antigen. After 3 days at 37° C. in 5% v/v CO2/air, 100 μl aliquots from each replicate supernatant were collected and stored at −70° C. for cytokine assays; the cells were then pulsed with 3H-thymidine, harvested 16 hours later and counted on a Topcount™ micro-scintillation counter (Packard, Meriden, Conn.). Insulin was recombinant human (Humulin R, Eli Lilly), is used for aerosol treatments. Insulin B-chain peptide corresponding to amino acids 9-23 of mouse insulin II (Peptide Express, Fort Collins, Colo.) was more than 90% pure by HPLC analysis. GAD65 was the recombinant human form expressed with a C-terminal hexahistidine in a baculovirus system and purified by Ni^2+ chelation) affinity chromatography. It was resolved as a single band in SDS-PAGE and was endotoxin-free by the quantitative Limulus lysate assay (BioWhittaker, Walkersville, Md.).
Splenocytes from three mice per group were assayed in quadruplicate in HL-1 serum-free medium. Statistical comparisons (Mann-Whitney U tests) were between the twelve results for each group.

Series [4] has the same test system. Description: Cytokine secretion by splenocytes from aerosol-treated mice (ELISA). To be noted: splenocytes with 40 μg/ml mouse insulin II B chain peptide (a 9-23), three days incubation; for IL-4 secretion / IL-10 secretion: lower limit of detection 16 pg/ml. In kind it is cell-based. On the procedure: as §1
IL-2, -4, -10 and IFN-γ were measured by ELISAs with monoclonal antibody pairs (Pharmingen); the lower limits of detection were 62, 16, 16 and 55 pg/ml, respectively. TGF-β1 was measured with an ELISA kit (Promega) with a lower limit of detection of 16 pg/ml.
Supernatants from replicate culture wells (Table 2) were sampled alter three days incubation and assayed for cytokines.

The subject of another series is insulin antibodies. Briefly: Insulin antibodies in serum, 125I-insulin immunoprecipitation assay. Format: in vivo, mouse. The conditions noted are these: sera n=12/group, aerosol-treated mice aged 70-105 days. How it is done: To detect insulin antibodies, ^125lablelled human insulin (approx. 100,000 cpm: specific activity 120 μCi/μg) was incubated with or without excess unlabelled insulin (10 μg/ml) in phosphate-buffered saline containing a mixture of protease inhibitors and serial log dilutions of mouse serum, for 5 days at 4° C. Complexes were then precipitated with rabbit anti-mouse globulin anti-serum, washed and counted in a gamma counter. Positive control sera (guinea pig anti-porcine insulin serum, human IDDM sera) maximally precipitated 37-54% of the total radioactivity. Non-specific binding, in the presence of excess unlabelled insulin, was ≦3.3%.
Insulin antibodies were measured by a standard immunoprecipitation assay with sera (n=12/group) from insulin- and ovalbumin-treated mice aged 70-105 days. […] Defective suppressor T-cell function has been postulated to shift the balance towards Th1 in IDDM (11). It seems unlikely that the reduced T-cell proliferative response to GAD could reflect ‘bystander’ suppression due to the secretion of the Th2 cytokines IL4 and IL-10 (8) by insulin aerosol-induced regulatory cells because, apart from an absence of added insulin in the cultures with GAD, responses to conA and anti-CD3 were not impaired. A direct explanation is that tile reduced response to GAD reflects the protective effect of aerosol insulin on insulitis and β-cell destruction. […]

The next series deals with male NOD mice. Description: Adoptive transfer of diabetes (co-transfer of splenocytes). In kind it is in vivo, mouse.
Another series relates to NOD female mice. Description: Intranasal insulin, proinsulin or proinsulin peptide 24-36, diabetes in NOD mice. In kind it is in vivo, mouse. To be noted: for onset and incidence of diabetes: single intranasal dose at either 28 or 56 days of age, compared to control proteins ovalbumin or hen egg lysozyme; for effectiveness on a comparative dose basis: single intranasal dose, NOD female mice. How it is done: Intranasal insulin (FIG. 1), proinsulin (FIG. 2) or proinsulin peptide 24-36 (FIG. 3). Commercially available insulin at 4 mg/ml, or proinsuling or proinsulin peptide 24-36 at 1-4 mg/ml in either insulin carrier solution or mouse tonicity—phosphate buffered saline, was applied in a volume of 10-20 μl to the nostrils of unanaesthetised, restrained NOD female mice at either 28 or 56 days of age.

For series [5], the system named is at-risk first-degree relatives with immune markers of IDDM. To be noted: intranasal.
Source text: A clinical trial involves administration of intranasal insulin to at-risk but otherwise healthy first-degree relatives with immune markers of IDDM, including circulating antibodies and T cells reactive with islet autoantigens.
This trial examines the effect of intranasal insulin on the surrogate immune markers of IDDM. The design is randomized, double-blind and placebo-controlled, with a crossover at six months. The placebo is the carrier solution normally used for insulin. […] Treatment is administered daily for 10 consecutive days, then for two consecutive days weekly. After six months, treatment is crossed over (from insulin to placebo, or vice versa).
The administration dose of insulin per nostril is approximately 200 μl of the commercial 4 mg/ml solution. The placebo is the carrier solution in which the insulin is normally dissolved.
Series [6] has as its system female NOD mice. Description: Aerosol treatment and diabetes assessment (blood glucose >11 mM). In kind it is in vivo, mouse. To be noted: aerosol for 10 consecutive days and then weekly, started at 49 days of age (insulitis well-established).
For series [7] the following is noted: humans, in the absence of absorption-promoting agents; cited from earlier work.
In a further series the test system is NOD mouse. The conditions noted are these: oral, 1 mg twice weekly; cited from earlier work.
Setting [8] is: additive: Anti-CD3 antibody (10 μg/ml).
[9] abbreviates: additive: Concanavalin A (5 μg/ml).
Where [10] appears, read: additive: Human GAD65 (20 μg/ml).
The mark [11] stands for this setting: additive: Human insulin (40 μg/ml).
The mark [12] stands for this setting: additive: Mouse insulin II B-chain (a 9-23) (40 μg/ml).

Marks after values point to notes of the source that are not given here.

For Recombinant human insulin, in the series on female NOD mice [1], the Diabetes frequency was 2/32 (6.3%)^2, the “diabetes incidence at 156 days of age (median)” value is reported as 23%, the “diabetes incidence at 240 days of age (median)” value was found to be 49% and the “incidence of diabetes by 240 days of age” value worked out at 75%. The “clinical complications or abnormalities at autopsy” value with female NOD mice [1] (NOD mice treated with aerosol or intranasal insulin) is “no clinical complications, or abnormalities at autopsy”. For the same substance, the “Infiltration of the salivary glands by lymphoid cells (sialitis)” value with female NOD mice [2] (NOD mice, aerosol treatment) is listed as “unaffected”. In addition, the Insulitis score in the series on female NOD mice [2] is reported as 1.2 ± 0.98^1. For the same substance, the “[3H]-thymidine uptake (cpm, mean ± SD)” value in series [3] (setting [8]) is 2221 ± 533 cpm. In [3] (setting [9]), the “[3H]-thymidine uptake (cpm, mean ± SD)” value is recorded as 3357 ± 812 cpm. The “[3H]-thymidine uptake (cpm, mean ± SD)” value in series [3] (setting [10]) is on record as 424 ± 165^c cpm. In addition, the “[3H]-thymidine uptake (cpm, mean ± SD)” value in series [3] (setting [11]) was 134 ± 27 cpm. Besides, in [3] (setting [12]), the “[3H]-thymidine uptake (cpm, mean ± SD)” value is listed as 169 ± 80^b cpm. The “[3H]-thymidine uptake (cpm, mean ± SD)” value in series [3] (additive: None) is on record as 157 ± 28^a cpm. In [4], the IFN-γ secretion stood at 368 ± 71 pg/mL, the IL-2 secretion came out at 200 ± 15 pg/mL, the TGF-β secretion is 293 ± 131 and the IL-4 secretion was found to be 36 ± 6 pg/mL. For the same substance, the IL-10 secretion in [4] is 222 ± 149 pg/mL. In addition, in the series with insulin antibodies, the “Precipitation of 125I-insulin radioactivity by antibodies in sera (mean precipitated ± SD)” value is listed as 12.7±3.6%. For the same substance, in the series on male NOD mice (1.4×10^5 γδ T cells from aerosol-treated mice co-injected with 2×10^7 spleen cells from diabetic mice, for at least 70 days), the “Diabetes incidence after transfer decreased” value was determined as 50%. Further, the “Diabetes incidence suppressed after adoptive transfer” value with male NOD mice (co-injection of splenocytes or nylon wool-non-adherent splenocytes from aerosol-treated mice with 2×10^7 diabetic spleen cells, six separate experiments) is on record as at least 75%. Moreover, the “onset and incidence of diabetes” value in the series with NOD female mice was “significantly delayed the onset and decreased the incidence of diabetes”. Further, in series [5] (36 high-risk subjects aged 4-30), the side effects result is “No significant side effects”. Moreover, the mucosal irritation result in series [5] (human subjects) was “only been rare and then minor and transient”. Moreover, in the series on female NOD mice [6], the “diabetes incidence at 156 days” value is given as 25%. Moreover, the “systemic uptake from the naso-pharyngeal mucosa” value in [7] was “insignificant”.
As to “ovalbumin [control ovalbumin protein, at 4 mg/ml, delivered as aerosol]”, in the series on female NOD mice [1], the Diabetes frequency was 8/32 (25%), the “diabetes incidence at 156 days of age (median)” value is 47%, the “diabetes incidence at 240 days of age (median)” value worked out at 79% and the “incidence of diabetes by 240 days of age” value came to 88%. The substance also registered an Insulitis score in the series on female NOD mice [2] of 2.6 ± 0.92. Further, the “[3H]-thymidine uptake (cpm, mean ± SD)” value in series [3] (setting [8]) came out at 2643 ± 1126 cpm. In addition, in [3] (setting [9]), the “[3H]-thymidine uptake (cpm, mean ± SD)” value was 2960 ± 494 cpm. The “[3H]-thymidine uptake (cpm, mean ± SD)” value in series [3] (setting [10]) is 1381 ± 650^f cpm. Also, the “[3H]-thymidine uptake (cpm, mean ± SD)” value in series [3] (setting [11]) worked out at 197 ± 82 cpm. For the same substance, the “[3H]-thymidine uptake (cpm, mean ± SD)” value in series [3] (setting [12]) was 435 ± 240^e cpm. For the same substance, in series [3] (additive: None), the “[3H]-thymidine uptake (cpm, mean ± SD)” value is reported as 208 ± 29^d cpm. In addition, in series [4], the IFN-γ secretion is 423 ± 31 pg/mL, the IL-2 secretion was found to be 186 ± 27 pg/mL, the TGF-β secretion turned out to be 162 ± 41 and the IL-4 secretion entry was “not detectable”. Besides, the IL-10 secretion result in series [4] is “not detectable”. The “Precipitation of 125I-insulin radioactivity by antibodies in sera (mean precipitated ± SD)” value with insulin antibodies is given as 6.9±2.5%. Moreover, the “diabetes incidence at 156 days” value in the series with female NOD mice [6] amounted to 58%.
Turning to porcine insulin [oral porcine insulin], the “onset and incidence of diabetes” value in the series on NOD mouse was “delayed the onset and reduced the incidence of diabetes”.
On to proinsulin, for which, in the series on NOD female mice, the “onset and incidence of diabetes” value is “significantly delayed the onset and decreased the incidence of diabetes”; the “effectiveness on a comparative dose basis” value is reported as “more effective than insulin”.
“proinsulin peptide 24-36 (AFVNQHLCGSHLV; pro-form; UniProt P01308 24-36, looked up, fragment) [peptide fragment of proinsulin, amino acids 24-36, applied intranasally at 1-4 mg/ml]”: the “adoptive transfer of diabetes by splenocytes from diabetic mice” value with male NOD mice (whole splenocytes, and splenocytes depleted of CD8 but not CD4 T cells, from female mice given a single intranasal dose at 28 days, taken at 56 days) was “significantly suppressed the adoptive transfer of diabetes”. For the same substance, in the series with NOD female mice, the “onset and incidence of diabetes” value is “significantly delayed the onset and decreased the incidence of diabetes”; the “effectiveness on a comparative dose basis” value is on record as “more effective than insulin”.
